Laboratory results as given in patent publication US20190085024A1, “Alpha-Ketoamide Inhibitors Of Cysteine Proteases” (Phelix Therapeutics, priority 2017, published 2019).

Columns and labels:
[1] = target: Cathepsin L (Homo sapiens, UniProt P07711); assay: Cathepsin L enzyme assay; format: biochemical; details: Ki by Morrison equation; pH 5.5, substrate Z-Phe-Arg-Amc; read-out: Cat L
From the text: Two wells contained DMSO only for controls.
Velocity was converted to μM/sec.

[2] = target: Calpain; assay: Calpain enzyme assay; format: biochemical; details: Ki by Morrison equation; pH 7.5, 5 mM CaCl2

Chain of Cathepsin L (P07711 114-333, species assumed): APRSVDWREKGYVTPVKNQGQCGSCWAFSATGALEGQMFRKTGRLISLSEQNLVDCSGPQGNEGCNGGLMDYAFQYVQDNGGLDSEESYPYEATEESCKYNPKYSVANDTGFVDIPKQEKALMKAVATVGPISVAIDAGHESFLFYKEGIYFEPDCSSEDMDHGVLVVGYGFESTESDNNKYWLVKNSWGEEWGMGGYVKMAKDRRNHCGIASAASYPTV

Ki [1] [nM]	Ki [2] [nM]	Structure (SMILES)
0.6	8.24	CC[C@H](C)C(NC(=O)[C@H](CC(C)C)NC(=O)OCc1ccccc1)C(=O)C(=O)NCC(=O)N[C@H](Cc1ccc2ccccc2c1)C(N)=O (stereo partly shown) [PHELIX304, benzyl (1-((1-((2-((1-amino-3-(naphthalen-2-yl)-1-oxopropan-2-yl)amino)-2-oxoethyl)amino)-4-methyl-1,2-dioxohexan-3-yl)amino)-4-methyl-1-oxopentan-2-yl)carbamate]
912	9450	CCC(C)C(C(=O)C(=O)NCC(=O)NC(Cc1ccc2ccccc2c1)C(N)=O)N(C)C(=O)C(CC(C)C)NC(=O)OCc1ccccc1 (stereo not shown) [PHELIX305, benzyl (1-((1-((2-((1-amino-3-(naphthalen-2-yl)-1-oxopropan-2-yl)amino)-2-oxoethyl)amino)-4-methyl-1,2-dioxohexan-3-yl)(methyl)amino)-4-methyl-1-oxopentan-2-yl)carbamate]
77.6	446	CCC(C)C(C(=O)C(=O)NCC(=O)NC(Cc1ccc2ccccc2c1)C(N)=O)N(C)C(=O)C(CC(C)C)NC(=O)OCc1ccccc1 (stereo not shown) [PHELIX306, benzyl (1-((1-((2-((1-amino-3-(naphthalen-2-yl)-1-oxopropan-2-yl)amino)-2-oxoethyl)amino)-4-methyl-1,2-dioxohexan-3-yl)(methyl)amino)-4-methyl-1-oxopentan-2-yl)carbamate]
956	1510	CCC(C)C(NC(=O)C(Cc1c[nH]cn1)NC(=O)Cc1ccccc1)C(=O)C(=O)NCC(=O)NC(Cc1ccc2ccccc2c1)C(N)=O (stereo not shown) [PHELIX308, 3-(3-(1H-imidazol-4-yl)-2-(2-phenylacetamido)propanamido)-N-(2-((1-amino-3-(naphthalen-2-yl)-1-oxopropan-2-yl)amino)-2-oxoethyl)-4-methyl-2-oxohexanamide]
106	309	CCC(C)C(NC(=O)C(Cc1c[nH]cn1)NC(=O)OCc1ccccc1)C(=O)C(=O)NCC(=O)NC(Cc1ccc2ccccc2c1)C(N)=O (stereo not shown) [PHELIX311, benzyl (1-((1-((2-((1-amino-3-(naphthalen-2-yl)-1-oxopropan-2-yl)amino)-2-oxoethyl)amino)-4-methyl-1,2-dioxohexan-3-yl)amino)-3-(1H-imidazol-4-yl)-1-oxopropan-2-yl)carbamate]
2.65	0.81	CCC(C)C(NC(=O)C(CC(C)C)NC(=O)Cc1cccnc1)C(=O)C(=O)NCC(=O)NC(Cc1ccc2ccccc2c1)C(N)=O (stereo not shown) [PHELIX312, N-(2-((1-amino-3-(naphthalen-2-yl)-1-oxopropan-2-yl)amino)-2-oxoethyl)-4-methyl-3-(4-methyl-2-(2-(pyridin-3-yl)acetamido)pentanamido)-2-oxohexanamide]
< 0.1	9.91	CCC(C)C(NC(=O)C(CC(C)C)NC(=O)CN1CCN(C)CC1)C(=O)C(=O)NCC(=O)NC(Cc1ccc2ccccc2c1)C(N)=O (stereo not shown) [PHELIX313, N-(2-((1-amino-3-(naphthalen-2-yl)-1-oxopropan-2-yl)amino)-2-oxoethyl)-4-methyl-3-(4-methyl-2-(2-(4-methylpiperazin-1-yl)acetamido)pentanamido)-2-oxohexanamide]
3.33	8.01	CCC(C)C(NC(=O)C(CC(C)C)NC(=O)OCc1ccccc1)C(=O)C(=O)NC(CC(N)=O)C(=O)NC(Cc1ccc2ccccc2c1)C(N)=O (stereo not shown) [PHELIX316, benzyl (1-((1-((4-amino-1-((1-amino-3-(naphthalen-2-yl)-1-oxopropan-2-yl)amino)-1,4-dioxobutan-2-yl)amino)-4-methyl-1,2-dioxohexan-3-yl)amino)-4-methyl-1-oxopentan-2-yl)carbamate]
1.37	19.8	CCC(C)C(NC(=O)C(CC(C)C)NC(=O)OCc1ccccc1)C(=O)C(=O)NC(CCC(N)=O)C(=O)NC(Cc1ccc2ccccc2c1)C(N)=O (stereo not shown) [PHELIX317, benzyl (1-((1-((5-amino-1-((1-amino-3-(naphthalen-2-yl)-1-oxopropan-2-yl)amino)-1,5-dioxopentan-2-yl)amino)-4-methyl-1,2-dioxohexan-3-yl)amino)-4-methyl-1-oxopentan-2-yl)carbamate]
3.82	1.63	CCC(C)C(NC(=O)C(CC(C)C)NC(=O)OCc1ccccc1)C(=O)C(=O)NCC(=O)NC(Cc1ccccc1)C(N)=O (stereo not shown) [PHELIX318, benzyl (1-((1-((2-((1-amino-1-oxo-3-phenylpropan-2-yl)amino)-2-oxoethyl)amino)-4-methyl-1,2-dioxohexan-3-yl)amino)-4-methyl-1-oxopentan-2-yl)carbamate]
495	38.6	CCC(C)C(NC(=O)C(CCC(N)=O)NC(=O)Cc1ccccc1)C(=O)C(=O)NCC(=O)NC(Cc1ccc2ccccc2c1)C(N)=O (stereo not shown) [PHELIX320, N^1-(1-((2-((1-amino-3-(naphthalen-2-yl)-1-oxopropan-2-yl)amino)-2-oxoethyl)amino)-4-methyl-1,2-dioxohexan-3-yl)-2-(2-phenylacetamido)pentanediamide]
< 0.1	83.9	CCC(C)C(NC(=O)C(Cc1ccccc1)NC(=O)Cc1ccccc1)C(=O)C(=O)NCC(=O)NC(Cc1ccc2ccccc2c1)C(N)=O (stereo not shown) [PHELIX321, N-(2-((1-amino-3-(naphthalen-2-yl)-1-oxopropan-2-yl)amino)-2-oxoethyl)-4-methyl-2-oxo-3-(3-phenyl-2-(2-phenylacetamido)propanamido)hexanamide]
101	71	CCC(C)C(NC(=O)C(CC(N)=O)NC(=O)Cc1ccccc1)C(=O)C(=O)NCC(=O)NC(Cc1ccc2ccccc2c1)C(N)=O (stereo not shown) [PHELIX322, N^1-(1-((2-((1-amino-3-(naphthalen-2-yl)-1-oxopropan-2-yl)amino)-2-oxoethyl)amino)-4-methyl-1,2-dioxohexan-3-yl)-2-(2-phenylacetamido)succinamide]
273	2370 ± 1050	CCC(C)C(NC(=O)C(NC(=O)Cc1ccccc1)C(C)(C)C)C(=O)C(=O)NCC(=O)NC(Cc1ccc2ccccc2c1)C(N)=O (stereo not shown) [PHELIX323, N-(2-((1-amino-3-(naphthalen-2-yl)-1-oxopropan-2-yl)amino)-2-oxoethyl)-3-(3,3-dimethyl-2-(2-phenylacetamido)butanamido)-4-methyl-2-oxohexanamide]
1.32	8.15	CCC(C)C(NC(=O)C(CC(C)C)NC(=O)Cc1ccccn1)C(=O)C(=O)NCC(=O)NC(Cc1ccc2ccccc2c1)C(N)=O (stereo not shown) [PHELIX324, N-(2-((1-amino-3-(naphthalen-2-yl)-1-oxopropan-2-yl)amino)-2-oxoethyl)-4-methyl-3-(4-methyl-2-(2-(pyridin-2-yl)acetamido)pentanamido)-2-oxohexanamide]
239	1210	CCC(C)C(NC(=O)OCc1ccccc1)C(=O)C(=O)NCC(=O)NC(Cc1ccc2ccccc2c1)C(N)=O (stereo not shown) [PHELIX325, benzyl (1-((2-((1-amino-3-(naphthalen-2-yl)-1-oxopropan-2-yl)amino)-2-oxoethyl)amino)-4-methyl-1,2-dioxohexan-3-yl)carbamate]
60.1	702	CCC(C)C(NC(=O)C(CC(C)C)NC(=O)OCc1ccccc1)C(=O)C(=O)NC(CC(N)=O)Cc1ccccc1 (stereo not shown) [PHELIX326, benzyl (1-((1-((4-amino-4-oxo-1-phenylbutan-2-yl)amino)-4-methyl-1,2-dioxohexan-3-yl)amino)-4-methyl-1-oxopentan-2-yl)carbamate]
9.33	9.98	CCC(C)C(NC(=O)C(CC(C)C)NC(=O)OCc1ccccc1)C(=O)C(=O)NCC(=O)NC(Cc1cc2ccccc2[nH]1)C(N)=O (stereo not shown) [PHELIX327, benzyl (1-((1-((2-((1-amino-3-(1H-indol-2-yl)-1-oxopropan-2-yl)amino)-2-oxoethyl)amino)-4-methyl-1,2-dioxohexan-3-yl)amino)-4-methyl-1-oxopentan-2-yl)carbamate]
2.52	35.1	CCC(C)C(NC(=O)C(CC(C)C)NC(=O)OCc1ccccc1)C(=O)C(=O)NC(Cc1cnc[nH]1)C(=O)NC(Cc1ccc2ccccc2c1)C(N)=O (stereo not shown) [PHELIX328, benzyl (1-((1-((1-((1-amino-3-(naphthalen-2-yl)-1-oxopropan-2-yl)amino)-3-(1H-imidazol-5-yl)-1-oxopropan-2-yl)amino)-4-methyl-1,2-dioxohexan-3-yl)amino)-4-methyl-1-oxopentan-2-yl)carbamate]
2.67	110	CCC(C)C(NC(=O)C(CC(C)C)NC(=O)OCc1ccccc1)C(=O)C(=O)NC(CCCNC(=N)N)C(=O)NC(Cc1ccc2ccccc2c1)C(N)=O (stereo not shown) [PHELIX329, benzyl (1-((1-((1-((1-amino-3-(naphthalen-2-yl)-1-oxopropan-2-yl)amino)-5-guanidino-1-oxopentan-2-yl)amino)-4-methyl-1,2-dioxohexan-3-yl)amino)-4-methyl-1-oxopentan-2-yl)carbamate]
2.91	21.4	CCC(C)C(NC(=O)C(CC(C)C)NC(=O)OCc1ccccc1)C(=O)C(=O)NC(CCCNC(=N)N)C(=O)NC(Cc1ccc2ccccc2c1)C(N)=O (stereo not shown) [PHELIX330, benzyl (1-((1-((1-((1-amino-3-(naphthalen-2-yl)-1-oxopropan-2-yl)amino)-5-guanidino-1-oxopentan-2-yl)amino)-4-methyl-1,2-dioxohexan-3-yl)amino)-4-methyl-1-oxopentan-2-yl)carbamate]
1.67	9.26	CCC(C)C(NC(=O)C(CC(C)(C)C)NC(=O)Cc1ccccc1)C(=O)C(=O)NCC(=O)NC(Cc1ccc2ccccc2c1)C(N)=O (stereo not shown) [PHELIX331, N-(2-((1-amino-3-(naphthalen-2-yl)-1-oxopropan-2-yl)amino)-2-oxoethyl)-3-(4,4-dimethyl-2-(2-phenylacetamido)pentanamido)-4-methyl-2-oxohexanamide]
1.15	2.37	CCC(C)C(NC(=O)C(CC1CC1)NC(=O)Cc1ccccc1)C(=O)C(=O)NCC(=O)NC(Cc1ccc2ccccc2c1)C(N)=O (stereo not shown) [PHELIX332, N-(2-((1-amino-3-(naphthalen-2-yl)-1-oxopropan-2-yl)amino)-2-oxoethyl)-3-(3-cyclopropyl-2-(2-phenylacetamido)propanamido)-4-methyl-2-oxohexanamide]
